This test has as its target T1, CDC25B (Homo sapiens, UniProt P30305).
T1 construct: recombinant CDC25B protein
T1 sequence (P30305 1-580): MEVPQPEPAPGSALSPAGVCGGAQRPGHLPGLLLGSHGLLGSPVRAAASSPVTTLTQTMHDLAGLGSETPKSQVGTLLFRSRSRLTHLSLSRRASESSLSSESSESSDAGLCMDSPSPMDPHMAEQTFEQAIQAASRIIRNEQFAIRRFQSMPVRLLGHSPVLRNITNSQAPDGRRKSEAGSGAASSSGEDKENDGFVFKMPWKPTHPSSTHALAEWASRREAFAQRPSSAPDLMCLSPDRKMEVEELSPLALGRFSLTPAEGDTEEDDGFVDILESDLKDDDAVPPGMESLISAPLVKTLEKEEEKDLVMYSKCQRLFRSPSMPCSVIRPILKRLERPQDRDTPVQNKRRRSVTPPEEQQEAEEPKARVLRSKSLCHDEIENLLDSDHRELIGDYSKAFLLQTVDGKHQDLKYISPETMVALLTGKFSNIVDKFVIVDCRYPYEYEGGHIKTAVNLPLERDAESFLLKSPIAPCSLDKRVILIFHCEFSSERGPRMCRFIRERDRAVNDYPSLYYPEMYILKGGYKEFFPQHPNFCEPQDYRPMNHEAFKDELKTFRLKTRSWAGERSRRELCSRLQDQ
The experiment in a line: fluorometric phosphatase assay (3-O-methylfluorescein phosphate) with recombinant CDC25B; positive-control inhibitor, single concentration. It is filed as biochemical. The method, then:
fluorometric phosphatase assay (3-O-methylfluorescein phosphate) with recombinant CDC25B; positive-control inhibitor, single concentration on CDC25B | CDC25B dephosphorylation catalytic activity was determined by in vitro enzyme assay. ... PC, NSC663284 served as the positive control.

For `O=C1C(Cl)=C(NCCN2CCOCC2)C(=O)c2ncccc21` [PC, NSC663284], the “fluorometric phosphatase assay (3-O-methylfluorescein phosphate) with recombinan” value is reported as “CDC25B dephosphorylation catalytic activity was determined by in vitro enzyme assay. ... PC, NSC663284 served as the positive control”.

For the origin of these results see paper PMC6463794, “Inhibition of CDC25B With WG-391D Impedes the Tumorigenesis of Ovarian Cancer” (Frontiers in Oncology, 2019).
